Measured values from ChEMBL document CHEMBL1201862, “PubChem BioAssay data set” (2004).
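Tested at 5 concentrations; 48 h exposure; 96-well plates; endpoints linearly interpolated, else capped at highest concentration. GI50 marks 50% less growth.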 The source made the active and inactive calls. No stated cut-off is given here; in the data, active = GI50 up to about 1.1 µM and inactive = higher.

Tests used:
Experiment in all cases: NCI anticancer screen, dose series, 48 h
786-0 = tested on: 786-0
A549 = tested on: A549
ACHN = tested on: ACHN
BT-549 = tested on: BT-549
CAKI-1 = tested on: CAKI-1
CCRF-CEM = tested on: CCRF-CEM
COLO 205 = tested on: COLO 205
DU-145 = tested on: DU-145
EKVX = tested on: EKVX
HCC 2998 = tested on: HCC 2998
HCT-116 = tested on: HCT-116
HCT-15 = tested on: HCT-15
HL-60 = tested on: HL-60
HOP-62 = tested on: HOP-62
HOP-92 = tested on: HOP-92
HT-29 = tested on: HT-29
Hs-578T = tested on: Hs-578T
IGROV-1 = tested on: IGROV-1
K562 = tested on: K562
KM12 = tested on: KM12
LOX IMVI = tested on: LOX IMVI
M14 = tested on: M14
MCF7 = tested on: MCF7
MDA-MB-231 = tested on: MDA-MB-231
MDA-MB-435 = tested on: MDA-MB-435
MDA-N = tested on: MDA-N
MOLT-4 = tested on: MOLT-4
Malme-3M = tested on: Malme-3M
NCI-H226 = tested on: NCI-H226
NCI-H23 = tested on: NCI-H23
NCI-H460 = tested on: NCI-H460
NCI-H522 = tested on: NCI-H522
NCI/ADR-RES = tested on: NCI/ADR-RES
OVCAR-3 = tested on: OVCAR-3
OVCAR-4 = tested on: OVCAR-4
OVCAR-5 = tested on: OVCAR-5
OVCAR-8 = tested on: OVCAR-8
PC-3 = tested on: PC-3
RPMI-8226 = tested on: RPMI-8226
RXF 393 = tested on: RXF 393
SF-268 = tested on: SF-268
SF-295 = tested on: SF-295
SK-MEL-28 = tested on: SK-MEL-28
SK-MEL-2 = tested on: SK-MEL-2
SK-MEL-5 = tested on: SK-MEL-5
SK-OV-3 = tested on: SK-OV-3
SN12C = tested on: SN12C
SNB-19 = tested on: SNB-19
SNB-75 = tested on: SNB-75
SR = tested on: SR
T47D = tested on: T47D
TK-10 = tested on: TK-10
U-251 = tested on: U-251
UACC-257 = tested on: UACC-257
UACC-62 = tested on: UACC-62
UO-31 = tested on: UO-31
A498 = tested on: A498
SF-539 = tested on: SF-539
SW-620 = tested on: SW-620

SMILES: CN1C(=O)C2(c3ccccc31)C1CC3C(CO1)C1C2C3(CO)CN1C#N (centres undefined)
- GI50 (786-0): > 100 µM (inactive)
- GI50 (A549): > 100 µM (inactive)
- GI50 (ACHN): > 100 µM (inactive)
- GI50 (BT-549): > 100 µM (inactive)
- GI50 (CAKI-1): > 100 µM (inactive)
- GI50 (CCRF-CEM): > 100 µM (inactive)
- GI50 (COLO 205): > 100 µM (inactive)
- GI50 (DU-145): > 100 µM (inactive)
- GI50 (EKVX): > 100 µM (inactive)
- GI50 (HCC 2998): > 100 µM (inactive)
- GI50 (HCT-116): > 100 µM (inactive)
- GI50 (HCT-15): > 100 µM
- GI50 (HL-60): > 100 µM (inactive)
- GI50 (HOP-62): > 100 µM (inactive)
- GI50 (HOP-92): > 100 µM (inactive)
- GI50 (HT-29): > 100 µM (inactive)
- GI50 (Hs-578T): > 100 µM (inactive)
- GI50 (IGROV-1): > 100 µM (inactive)
- GI50 (K562): > 100 µM (inactive)
- GI50 (KM12): > 100 µM (inactive)
- GI50 (LOX IMVI): > 100 µM (inactive)
- GI50 (M14): > 100 µM (inactive)
- GI50 (MCF7): > 100 µM (inactive)
- GI50 (MDA-MB-231): > 100 µM (inactive)
- GI50 (MDA-MB-435): > 100 µM (inactive)
- GI50 (MDA-N): > 100 µM (inactive)
- GI50 (MOLT-4): > 100 µM (inactive)
- GI50 (Malme-3M): > 100 µM (inactive)
- GI50 (NCI-H226): > 100 µM (inactive)
- GI50 (NCI-H23): > 100 µM (inactive)
- GI50 (NCI-H460): > 100 µM (inactive)
- GI50 (NCI-H522): > 100 µM (inactive)
- GI50 (NCI/ADR-RES): > 100 µM (inactive)
- GI50 (OVCAR-3): > 100 µM (inactive)
- GI50 (OVCAR-4): > 100 µM (inactive)
- GI50 (OVCAR-5): > 100 µM (inactive)
- GI50 (OVCAR-8): > 100 µM (inactive)
- GI50 (PC-3): > 100 µM (inactive)
- GI50 (RPMI-8226): > 100 µM (inactive)
- GI50 (RXF 393): > 100 µM (inactive)
- GI50 (SF-268): > 100 µM (inactive)
- GI50 (SF-295): > 100 µM (inactive)
- GI50 (SK-MEL-28): > 100 µM (inactive)
- GI50 (SK-MEL-2): > 100 µM (inactive)
- GI50 (SK-MEL-5): > 100 µM (inactive)
- GI50 (SK-OV-3): > 100 µM (inactive)
- GI50 (SN12C): > 100 µM (inactive)
- GI50 (SNB-19): > 100 µM (inactive)
- GI50 (SNB-75): > 100 µM (inactive)
- GI50 (SR): > 100 µM (inactive)
- GI50 (T47D): > 100 µM (inactive)
- GI50 (TK-10): > 100 µM (inactive)
- GI50 (U-251): > 100 µM (inactive)
- GI50 (UACC-257): > 100 µM (inactive)
- GI50 (UACC-62): > 100 µM (inactive)
- GI50 (UO-31): > 100 µM (inactive)

SMILES: Clc1ccc(CSCCc2ccncc2)cc1Cl
- GI50 (786-0): 17.2 µM (inactive)
- GI50 (A498): 13.2 µM (inactive)
- GI50 (A549): 28.1 µM (inactive)
- GI50 (ACHN): 21.7 µM (inactive)
- GI50 (BT-549): 19.6 µM (inactive)
- GI50 (CAKI-1): 38.5 µM (inactive)
- GI50 (CCRF-CEM): 20.6 µM (inactive)
- GI50 (COLO 205): 14.2 µM (inactive)
- GI50 (DU-145): 29.2 µM (inactive)
- GI50 (EKVX): 20.4 µM (inactive)
- GI50 (HCC 2998): 18.2 µM (inactive)
- GI50 (HCT-116): 15.8 µM (inactive)
- GI50 (HCT-15): 22.9 µM
- GI50 (HL-60): 17 µM (inactive)
- GI50 (HOP-62): 22.6 µM (inactive)
- GI50 (HOP-92): 13.1 µM (inactive)
- GI50 (HT-29): 15.7 µM (inactive)
- GI50 (Hs-578T): 23.4 µM (inactive)
- GI50 (IGROV-1): 20.8 µM (inactive)
- GI50 (K562): 19.3 µM (inactive)
- GI50 (KM12): 21.2 µM (inactive)
- GI50 (LOX IMVI): > 10 µM (inactive)
- GI50 (M14): 17.2 µM (inactive)
- GI50 (MCF7): 19.5 µM (inactive)
- GI50 (MDA-MB-231): 15.4 µM (inactive)
- GI50 (MDA-MB-435): 22.6 µM (inactive)
- GI50 (MDA-N): 20.2 µM (inactive)
- GI50 (MOLT-4): 15.8 µM (inactive)
- GI50 (Malme-3M): 21 µM (inactive)
- GI50 (NCI-H226): 22 µM (inactive)
- GI50 (NCI-H23): 22 µM (inactive)
- GI50 (NCI-H460): 31.8 µM (inactive)
- GI50 (NCI-H522): 15.4 µM (inactive)
- GI50 (NCI/ADR-RES): 19.7 µM (inactive)
- GI50 (OVCAR-3): 16.1 µM (inactive)
- GI50 (OVCAR-4): 23.1 µM (inactive)
- GI50 (OVCAR-5): 23.3 µM (inactive)
- GI50 (OVCAR-8): 19.7 µM (inactive)
- GI50 (PC-3): 21.2 µM (inactive)
- GI50 (RPMI-8226): 14.6 µM (inactive)
- GI50 (RXF 393): 21.9 µM (inactive)
- GI50 (SF-268): 21.9 µM (inactive)
- GI50 (SF-295): 17.5 µM (inactive)
- GI50 (SF-539): 17 µM (inactive)
- GI50 (SK-MEL-28): 22.7 µM (inactive)
- GI50 (SK-MEL-2): 15.8 µM (inactive)
- GI50 (SK-MEL-5): 16.3 µM (inactive)
- GI50 (SK-OV-3): 27.8 µM (inactive)
- GI50 (SN12C): 17.4 µM (inactive)
- GI50 (SNB-19): 17.8 µM (inactive)
- GI50 (SNB-75): 22.9 µM (inactive)
- GI50 (SW-620): 19.6 µM (inactive)
- GI50 (T47D): 26.3 µM (inactive)
- GI50 (TK-10): 42.9 µM (inactive)
- GI50 (U-251): 15.2 µM (inactive)
- GI50 (UACC-257): 35.9 µM (inactive)
- GI50 (UACC-62): 15.3 µM (inactive)
- GI50 (UO-31): 21 µM (inactive)
